Source: US7425631B2 (Amgen Inc., priority 2003, dated 2008)

Target: T1, human B1 receptor (Homo sapiens, UniProt P46663)
T1 construct: expressed in transfected cells
T1 sequence (P46663 1-353): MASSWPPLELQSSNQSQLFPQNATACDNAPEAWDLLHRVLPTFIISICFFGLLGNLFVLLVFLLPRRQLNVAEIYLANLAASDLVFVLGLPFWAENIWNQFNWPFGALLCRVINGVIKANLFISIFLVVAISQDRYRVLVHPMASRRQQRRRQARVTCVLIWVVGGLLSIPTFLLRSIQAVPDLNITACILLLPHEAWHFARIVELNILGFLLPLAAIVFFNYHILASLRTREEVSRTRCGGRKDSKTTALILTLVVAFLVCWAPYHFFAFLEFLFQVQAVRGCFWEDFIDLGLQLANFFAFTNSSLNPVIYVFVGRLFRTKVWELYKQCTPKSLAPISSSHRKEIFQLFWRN
Assay: In vitro assay of human B1 receptor function using calcium flux (aequorin luminescence)
Format: cell-based
Settings: CHO D-/hB1/Aequorin cells, agonist 20 nM des-Arg10-Kallidin (EC80); read-out: binding IC50's to hB1 receptor function
Experimental: Activation of the Gq linked B1 receptor results in an increase in intracellular calcium. […] Aequorin is a 21-kDa photoprotein that forms a bioluminescent complex when linked to the chromophore cofactor coelenterazine.
Following coelenterazine incubation, an automated flash-luminometer platform was used to dispense the B1 antagonist compounds (dissolved in DMSO and diluted with buffer to the desired concentration (final DMSO concentration <1% DMSO)) to the cell plate, a CCD camera situated underneath the cell plate took 12 images of the cell plate at 5 second intervals to determine if there was any agonist activity with the compounds. The hB1 agonist, des-Arg10-Kallidin, was added to the cell plate and another 12 images were recorded to determine the IC50 of the antagonist(s).

Q: For `CC(C)NCc1ccc2c(c1)CCC[C@H]2NC(=O)C[C@@H](NS(=O)(=O)c1ccc(Cl)c(Cl)c1)c1ccccc1`, which IC50 is on record?
A: < 10 nM

Q: Which IC50 does the source give for `O=C(CC(NS(=O)(=O)c1cccc(C(F)(F)F)c1)c1ccc(F)cc1)N[C@@H]1CCCc2cc(CN3CCCCC3)ccc21` (stereo in doubt) [ba, (3S)-3-(4-fluorophenyl)-N-((1R)-6-(1-piperidinylmethyl)-1,2,3,4-tetrahydro-1-naphthalenyl)-3-(((3-(trifluoromethyl)phenyl)sulfonyl)amino)propanamide] here?
A: < 10 nM

Q: For `O=C(C[C@@H](NS(=O)(=O)c1cccc(C(F)(F)F)c1)c1ccccc1)N[C@@H]1CCOc2cc(CN3CCCCC3)ccc21` [Example 166, (3R)-3-Phenyl-N-((4R)-7-(1-piperidinylmethyl)-3,4-dihydro-2H-chromen-4-yl)-3-(((3-(trifluoromethyl)phenyl)sulfonyl)amino)propanamide], which IC50 is on record?
A: < 10 nM

Q: Which IC50 does the source give for `O=C(C[C@@H](NS(=O)(=O)c1ccc(Cl)c(Cl)c1)c1ccccc1)N[C@@H]1CCOc2cc(CN3CCCCC3)ccc21` [Example 168, (3R)-3-(((3,4-Dichlorophenyl)sulfonyl)amino)-3-phenyl-N-((4R)-7-(1-piperidinylmethyl)-3,4-dihydro-2H-chromen-4-yl)propanamide] here?
A: < 10 nM

Q: How did the IC50 turn out when `O=C(C[C@@H](NS(=O)(=O)c1ccc(Cl)c(Cl)c1)c1ccccc1)N[C@@H]1CCOc2cc(CN3CCOCC3)ccc21` [Example 169, (3R)-3-(((3,4-Dichlorophenyl)sulfonyl)amino)-N-((4R)-7-(4-morpholinylmethyl)-3,4-dihydro-2H-chromen-4-yl)-3-phenylpropanamide] was run?
A: < 10 nM

Q: With `CC(C)(C)NCc1ccc2c(c1)OCC[C@H]2NC(=O)C[C@@H](NS(=O)(=O)c1cccc(C(F)(F)F)c1)c1ccccc1` [Example 170, (3R)-N-((4R)-7-(((1,1-Dimethylethyl)amino)methyl)-3,4-dihydro-2H-chromen-4-yl)-3-phenyl-3-(((3-(trifluoromethyl)phenyl)sulfonyl)amino)propanamide] as the compound, how does the IC50 read?
A: < 10 nM

Q: Which IC50 does the source give for `CN1c2cc(CN3CCCCC3)ccc2[C@@H](NC(=O)C[C@@H](NS(=O)(=O)c2ccc3ccccc3c2)c2ccccc2)CS1(=O)=O` [Example 175, (3R)-N-((4R)-1-Methyl-2,2-dioxido-7-(1-piperidinylmethyl)-3,4-dihydro-1H-2,1-benzothiazin-4-yl)-3-((2-naphthalenylsulfonyl)amino)-3-phenylpropanamide] here?
A: < 10 nM

Q: How did the IC50 turn out when `O=C(C[C@@H](NS(=O)(=O)c1ccc2ccccc2c1)c1ccccc1)N[C@H]1CCc2cc(CN3CCCCC3)ccc21` [Example 176, (3R)-3-((2-Naphthalenylsulfonyl)amino)-3-phenyl-N-((1S)-5-(1-piperidinylmethyl)-2,3-dihydro-1H-inden-1-yl)propanamide] was run?
A: < 10 nM

Q: For `O=C(C[C@@H](NS(=O)(=O)c1cccc(C(F)(F)F)c1)c1ccccc1)N[C@@H]1CCOc2cc(CN3CCC(F)CC3)ccc21` [Example 185, (3R)-N-((4R)-7-((4-Fluoro-1-piperidinyl)methyl)-3,4-dihydro-2H-chromen-4-yl)-3-phenyl-3-(((3-(trifluoromethyl)phenyl)sulfonyl)amino)propanamide], which IC50 is on record?
A: < 10 nM

Q: Which IC50 does the source give for `O=C(C[C@@H](NS(=O)(=O)c1cccc(C(F)(F)F)c1)c1ccccc1)N[C@@H]1CCOc2cc(CN3CCC(F)(F)CC3)ccc21` [Example 198, (3R)-N-((4R)-7-((4,4-Difluoro-1-piperidinyl)methyl)-3,4-dihydro-2H-chromen-4-yl)-3-phenyl-3-(((3-(trifluoromethyl)phenyl)sulfonyl)amino)propanamide] here?
A: < 10 nM

Q: How did the IC50 turn out when `C=C(CN1CCCCC1)c1ccc2c(c1)CCC[C@H]2NC(=O)C[C@@H](NS(=O)(=O)c1ccc(Cl)c(Cl)c1)c1ccccc1` [Example 218d, (3R)-3-(((3,4-dichlorophenyl)sulfonyl)amino)-3-phenyl-N-((1R)-6-(1-(1-piperidinylmethyl)ethenyl)-1,2,3,4-tetrahydro-1-naphthalenyl)propanamide] was run?
A: < 10 nM
